Experiment [1] has as its target recombinant human FGFR2 cytoplasmic domain (amino acids 403-822) (Homo sapiens (Human), UniProt P21802). As to the kind of experiment: FGFR2 enzyme activity assay (LanthaScreen TR-FRET). Type of experiment: biochemical. To be noted: 15 μM ATP, 20 min incubation at 22° C., average of multiple determinations if made, read-out: FGFR2 Enz FRET IC50. A digest of the protocol:
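His-tagged FGFR2 cytoplasmic domain ([…]) with 100 nM Alexa Fluor 647-poly-GT peptide and 15 μM ATP in HEPES/MgCl2/Triton buffer, pH 7.5, 2% DMSO, 20 min at 22 °C. EDTA-quenched, Eu-PY20 antibody added, TR-FRET read after 60 min.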
(In general: TR-FRET usually uses a lanthanide donor and a delayed reading to cut background.)

Experiment [2] deals with dephosphorylated FGFR1 (SEQ ID NO: 1, amino acids 458 to 765) (Homo sapiens (Human), UniProt P11362). As to the kind of experiment: FGFR enzyme binding assay (HTRF tracer displacement), FGFR1. To be noted: 5 nM dephosphorylated FGFR1, average of multiple determinations if made. Summed up:
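Compounds were tested for displacement of a tracer from human FGFR kinase in a time-resolved FRET binding format. After 60 minutes at 22° C, signal was read at two wavelengths and converted to percent of control, normalised between untreated wells and 1 μM reference inhibitor.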

Experiment [3] deals with FGFR1 (SEQ ID NO: 1, amino acids 458-765) (Homo sapiens (Human), UniProt P11362). The experiment can be described thus: LC/MS FGFR1 kobs assay (covalent protein modification). It is filed as binding. To be noted: 500 nM FGFR1, 3 μM compound. Summed up: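 Covalent labeling of FGFR1 kinase domain (aa 458-765) tracked over time by intact-protein LC/MS after formic acid quench. kobs derived by fitting DMSO-normalized percent unmodified FGFR1 to an exponential decay model.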
Chain of FGFR1 (SEQ ID NO: 1, amino acids 458-765) (P11362 458-765): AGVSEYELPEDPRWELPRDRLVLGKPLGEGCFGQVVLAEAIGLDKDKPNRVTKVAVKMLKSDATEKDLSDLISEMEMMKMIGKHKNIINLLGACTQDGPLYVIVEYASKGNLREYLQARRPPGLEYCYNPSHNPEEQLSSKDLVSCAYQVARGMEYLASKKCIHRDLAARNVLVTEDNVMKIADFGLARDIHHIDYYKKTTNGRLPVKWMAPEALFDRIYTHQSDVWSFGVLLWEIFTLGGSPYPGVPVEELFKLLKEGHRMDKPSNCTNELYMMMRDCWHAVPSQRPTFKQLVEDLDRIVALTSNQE

Chain of dephosphorylated FGFR1 (SEQ ID NO: 1, amino acids 458 to 765) (P11362 458-765): as above
Chain of recombinant human FGFR2 cytoplasmic domain (amino acids 403-822) (P21802 402-821): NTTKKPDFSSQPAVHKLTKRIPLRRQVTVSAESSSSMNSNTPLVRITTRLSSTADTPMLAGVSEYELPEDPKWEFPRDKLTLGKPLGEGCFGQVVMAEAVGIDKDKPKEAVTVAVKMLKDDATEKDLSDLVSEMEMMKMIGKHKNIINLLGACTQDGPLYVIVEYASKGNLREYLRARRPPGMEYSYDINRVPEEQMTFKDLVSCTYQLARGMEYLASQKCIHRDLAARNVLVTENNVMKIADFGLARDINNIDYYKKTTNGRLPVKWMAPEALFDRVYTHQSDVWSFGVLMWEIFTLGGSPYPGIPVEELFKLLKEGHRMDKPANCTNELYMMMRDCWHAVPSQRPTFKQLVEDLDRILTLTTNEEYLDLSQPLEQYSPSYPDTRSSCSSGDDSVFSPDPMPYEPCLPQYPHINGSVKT

Take `C=CC(=O)N1CC(C(=O)N2CCC(n3cc(-c4cc(OC5CCC5)c5c(C#N)cnn5c4)cn3)CC2)C1` [Example 125, 6-(1-(1-(1-acryloylazetidine-3-carbonyl)piperidin-4-yl)-1H-pyrazol-4-yl)-4-cyclobutoxypyrazolo[1,5-a]pyridine-3-carbonitrile]: the figures for the IC50 in experiment [1] and in experiment [2] were 3 nM and 13 nM, respectively. In addition, the “FGFR1 Enz kobs” value in experiment [3] amounted to 0.00246 min⁻¹.
For `COc1cc(-c2cnn(C3CCN(C(=O)C4CN(C(=O)/C=C/CN(C)C)C4)CC3)c2)cn2ncc(Cl)c12` [Example 174], the IC50 in experiment [1] amounted to 6 nM; in experiment [2], 194 nM. For the same molecule, in experiment [3], the “FGFR1 Enz kobs” value came to 0.00242 min⁻¹.
Turning to `C=CC(=O)N1CC(C(=O)N2CCC(c3ccc(-c4cc(OC)c5c(C#N)cnn5c4)cc3)CC2)C1` [Example 101, 6-(4-(1-(1-acryloylazetidine-3-carbonyl)piperidin-4-yl)phenyl)-4-methoxypyrazolo[1,5-a]pyridine-3-carbonitrile], the IC50 in experiment [1] amounted to 3 nM; in experiment [2] it was 42 nM. In addition, the “FGFR1 Enz kobs” value in experiment [3] came out at 0.00223 min⁻¹.
For the molecule `C=CC(=O)N(C)c1ccc(C(=O)N2CCC(n3cc(-c4cc(OC)c5c(C#N)cnn5c4)cn3)CC2)cc1` [Example 178, N-(4-(4-(4-(3-cyano-4-methoxypyrazolo[1,5-a]pyridin-6-yl)-1H-pyrazol-1-yl)piperidine-1-carbonyl)phenyl)-N-methylacrylamide], the values for the IC50 in experiment [1] and in experiment [2] were 5 nM and 61 nM, respectively. Moreover, the “FGFR1 Enz kobs” value in experiment [3] is 0.00131 min⁻¹.
The like results for `COc1cc(-c2cnn(C3CCN(C(=O)C4CN(C(=O)/C=C/CN(C)C)C4)CC3)c2)cn2ncc(C#N)c12` [Example 143, (E)-6-(1-(1-(1-(4-(dimethylamino)but-2-enoyl)azetidine-3-carbonyl)piperidin-4-yl)-1H-pyrazol-4-yl)-4-methoxypyrazolo [1,5-a]pyridine-3-carbonitrile] were, in that order, 2 nM, 33 nM and 0.00278 min⁻¹.
`C=CC(=O)N1CC(C(=O)N2CCC(n3cc(-c4cc(-c5ccc(NC(=O)C6CC6)cc5F)c5c(C#N)cnn5c4)cn3)CC2)C1` [Example 130, N-(4-(6-(1-(1-(1-acryloylazetidine-3-carbonyl)piperidin-4-yl)-1H-pyrazol-4-yl)-3-cyanopyrazolo[1,5-a]pyridin-4-yl)-3-fluorophenyl)cyclopropane-carboxamide]: the IC50 in experiment [1] was determined as 3 nM; in experiment [2], 7 nM. Also, the “FGFR1 Enz kobs” value in experiment [3] was 0.00132 min⁻¹.
The corresponding values for `C=CC(=O)N(C)c1ccc(CN2CCC(n3cc(-c4cc(OC)c5c(C#N)cnn5c4)cn3)CC2)cc1` [Example 10, N-(4-((4-(4-(3-cyano-4-methoxypyrazolo[1,5-a]pyridin-6-yl)-1H-pyrazol-1-yl)piperidin-1-yl)methyl)phenyl)-N-methylacrylamide] are 6 nM, 56 nM and 0.0034 min⁻¹.
The corresponding values for `C=CC(=O)N1CC2(CCN(C(=O)N3CCC(n4cc(-c5cc(OC)c6c(C#N)cnn6c5)cn4)CC3)CC2)C1` [Example 6, 6-(1-(1-(2-acryloyl-2,7-diazaspiro[3.5]nonane-7-carbonyl)piperidin-4-yl)-1H-pyrazol-4-yl)-4-methoxypyrazolo[1,5-a]pyridine-3-carbonitrile] are 4 nM, 157 nM and 0.00093 min⁻¹.
The corresponding values for `C=CC(=O)N1CC(C)(C(=O)N2CCC(n3cc(-c4cc(OC)c5c(Cl)cnn5c4)cn3)CC2)C1` [Example 123, 1-(3-(4-(4-(3-chloro-4-methoxypyrazolo[1,5-a]pyridin-6-yl)-1H-pyrazol-1-yl)piperidine-1-carbonyl)-3-methylazetidin-1-yl)prop-2-en-1-one] are 13 nM, 221 nM and 0.00126 min⁻¹.
`COc1cc(-c2cnn(C3CCN(C(=O)C4CN(C(=O)/C=C/CN5CCCCC5)C4)CC3)c2)cn2ncc(C#N)c12` [Example 145, (E)-4-methoxy-6-(1-(1-(1-(4-(piperidin-1-yl)but-2-enoyl)azetidine-3-carbonyl)piperidin-4-yl)-1H-pyrazol-4-yl)pyrazolo[1,5-a]pyridine-3-carbonitrile]: the IC50 in experiment [1] turned out to be 3 nM; in experiment [2] it was 60 nM. Further, the “FGFR1 Enz kobs” value in experiment [3] worked out at 0.00179 min⁻¹.
Take `C=CC(=O)N1CC(OC)(C(=O)N2CCC(n3cc(-c4cc(OC)c5c(Cl)cnn5c4)cn3)CC2)C1` [Example 124, 1-(3-(4-(4-(3-chloro-4-methoxypyrazolo[1,5-a]pyridin-6-yl)-1H-pyrazol-1-yl)piperidine-1-carbonyl)-3-methoxyazetidin-1-yl)prop-2-en-1-one]: the IC50 came to 17 nM in experiment [1] and 119 nM in experiment [2]. Moreover, in experiment [3], the “FGFR1 Enz kobs” value stood at 0.00241 min⁻¹.
The like results for `C=CC(=O)N1CC(C(=O)N2CCC(n3cc(-c4cc(OCC(C)C)c5c(C#N)cnn5c4)cn3)CC2)C1` [Example 128, 6-(1-(1-(1-acryloylazetidine-3-carbonyl)piperidin-4-yl)-1H-pyrazol-4-yl)-4-isobutoxypyrazolo[1,5-a]pyridine-3-carbonitrile] were, in that order, 5 nM, 38 nM and 0.00134 min⁻¹.
Consider `C=CC(=O)N1CC(CN2CCC(n3cc(-c4cc(OC)c5c(C#N)cnn5c4)cn3)CC2)C1` [Example 132, 6-(1-(1-((1-acryloylazetidin-3-yl)methyl)piperidin-4-yl)-1H-pyrazol-4-yl)-4-methoxypyrazolo[1,5-a]pyridine-3-carbonitrile], for which the IC50 was 13 nM in experiment [1] and 71 nM in experiment [2]. The “FGFR1 Enz kobs” value in experiment [3] turned out to be 0.00146 min⁻¹.
Turning to `C=CC(=O)N1CC(C(=O)N2CCC(n3cc(-c4cc(OCC)c5c(C#N)cnn5c4)cn3)CC2)C1` [Example 126, 6-(1-(1-(1-acryloylazetidine-3-carbonyl)piperidin-4-yl)-1H-pyrazol-4-yl)-4-ethoxypyrazolo[1,5-a]pyridine-3-carbonitrile], the figures for the IC50 in experiment [1] and in experiment [2] were 6 nM and 147 nM, respectively. For the same molecule, the “FGFR1 Enz kobs” value in experiment [3] was found to be 0.0028 min⁻¹.
Turning to `C=CC(=O)N1CCC(n2cc(-c3cc(OC)c4c(C#N)cnn4c3)cn2)CC1` [Example 11, 6-(1-(1-acryloylpiperidin-4-yl)-1H-pyrazol-4-yl)-4-methoxypyrazolo[1,5-a]pyridine-3-carbonitrile], the IC50 in experiment [1] is 7 nM; in experiment [2] it was 210 nM. The “FGFR1 Enz kobs” value in experiment [3] was found to be 0.0002 min⁻¹.
The corresponding values for `C=CC(=O)N1CC(C(=O)N2CCC(n3cc(-c4cc(-c5ccccc5F)c5c(C#N)cnn5c4)cn3)CC2)C1` [Example 131, 6-(1-(1-(1-acryloylazetidine-3-carbonyl)piperidin-4-yl)-1H-pyrazol-4-yl)-4-(2-fluorophenyl)pyrazolo[1,5-a]pyridine-3-carbonitrile] are 10 nM, 7 nM and 0.00146 min⁻¹.
Regarding `C=CC(=O)N1CC2(CCN(C(=O)N3CCC(n4cc(-c5cc(OC)c6c(C#N)cnn6c5)cn4)CC3)C2)C1` [Example 8, 6-(1-(1-(2-acryloyl-2,6-diazaspiro[3.4]octane-6-carbonyl)piperidin-4-yl)-1H-pyrazol-4-yl)-4-methoxypyrazolo[1,5-a]pyridine-3-carbonitrile], the IC50 in experiment [1] is 7 nM; in experiment [2], 73 nM. The “FGFR1 Enz kobs” value in experiment [3] was 0.00124 min⁻¹.

Usually IC50 stands for the point on the concentration scale where inhibition reaches its midpoint.

The record behind these values is patent US12180207B2 (ARRAY BIOPHARMA INC., priority 2018, dated 2024).
